Measured values: paper PMC13194723, “Structural basis for pH-responsive amino acid transport via SLC7A4” (Nature Communications, 2026)
Residue numbers refer to the chain shown, from its start. Blank lines part the entries; values can stand above or below the molecule they belong to.

Assays:
[1] = target: T1, human SLC7A4 triple mutant (Tri-M) (Homo sapiens, UniProt O43246, L336S/L394M/V332S); experiment: competition of […] L-Leu uptake in HCT116 SLC7A5 KO cells; format: cell-based
T1 construct: C-terminal FLAG tag
T1 sequence (O43246 1-635 V332S/L336S/L394M): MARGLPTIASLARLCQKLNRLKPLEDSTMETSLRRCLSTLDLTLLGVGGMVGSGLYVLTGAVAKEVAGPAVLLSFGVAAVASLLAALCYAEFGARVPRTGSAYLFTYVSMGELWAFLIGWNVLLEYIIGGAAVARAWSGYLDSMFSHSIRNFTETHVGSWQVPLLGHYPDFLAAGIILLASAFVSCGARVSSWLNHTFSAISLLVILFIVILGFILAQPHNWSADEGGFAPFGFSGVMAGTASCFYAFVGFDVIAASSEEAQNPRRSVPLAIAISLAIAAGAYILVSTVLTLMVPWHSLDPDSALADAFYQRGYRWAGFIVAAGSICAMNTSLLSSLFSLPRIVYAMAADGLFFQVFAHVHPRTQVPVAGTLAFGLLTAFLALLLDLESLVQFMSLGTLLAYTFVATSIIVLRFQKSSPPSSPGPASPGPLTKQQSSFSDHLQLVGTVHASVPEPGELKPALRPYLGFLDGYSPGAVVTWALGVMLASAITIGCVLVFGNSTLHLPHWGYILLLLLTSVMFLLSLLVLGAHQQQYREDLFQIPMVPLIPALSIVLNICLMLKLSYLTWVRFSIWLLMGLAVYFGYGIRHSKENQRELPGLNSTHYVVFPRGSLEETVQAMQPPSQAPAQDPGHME

human SLC7A4 [2] = target: T2, human SLC7A4 (Homo sapiens, UniProt O43246); experiment: competition of […] L-Leu uptake in HCT116 SLC7A5 KO cells; also recognised in nanoDSF; not transported; format: cell-based
T2 construct: C-terminal FLAG tag
T2 sequence (O43246 1-635): T1 sequence (O43246 1-635 V332S/L336S/L394M) with S332V, S336L, M394L

[3] = target: T1, human SLC7A4 triple mutant (Tri-M); experiment: […] L-Leu uptake and competition in HCT116 SLC7A5 KO cells; format: cell-based
human SLC7A4 [4] = target: T2, human SLC7A4; experiment: […] L-Leu uptake competition in HCT116 SLC7A5 KO cells overexpressing SLC7A4; also nanoDSF (~[…] °C) and proteoliposome uptake; format: cell-based
[5] = target: T3, Arabidopsis thaliana CAT4 (SLC7A4/CAT4) (Arabidopsis thaliana (Mouse-ear cress)., UniProt Q8W4K3); experiment: BLI; Octet Red 384; who was immobilised is not stated; conditions: both partners purified
T3 construct: Cationic amino acid transporter 4 (CAT4) of Arabidopsis thaliana, UniProt Q8W4K3; codon-optimised synthetic gene in pDDGFP-Leu2D; C-terminal TEV site (ENLYFQG/S), yeGFP and His12 removed by TEV protease, so part of the TEV site stays on the C-terminus; also called AtCAT4; Arabidopsis thaliana SLC7A4; source: S. cerevisiae BJ5460, purified in LMNG (Ni-NTA, TEV cleavage, HisTrap flow-through, SEC); …
T3 sequence (Q8W4K3 whole entry): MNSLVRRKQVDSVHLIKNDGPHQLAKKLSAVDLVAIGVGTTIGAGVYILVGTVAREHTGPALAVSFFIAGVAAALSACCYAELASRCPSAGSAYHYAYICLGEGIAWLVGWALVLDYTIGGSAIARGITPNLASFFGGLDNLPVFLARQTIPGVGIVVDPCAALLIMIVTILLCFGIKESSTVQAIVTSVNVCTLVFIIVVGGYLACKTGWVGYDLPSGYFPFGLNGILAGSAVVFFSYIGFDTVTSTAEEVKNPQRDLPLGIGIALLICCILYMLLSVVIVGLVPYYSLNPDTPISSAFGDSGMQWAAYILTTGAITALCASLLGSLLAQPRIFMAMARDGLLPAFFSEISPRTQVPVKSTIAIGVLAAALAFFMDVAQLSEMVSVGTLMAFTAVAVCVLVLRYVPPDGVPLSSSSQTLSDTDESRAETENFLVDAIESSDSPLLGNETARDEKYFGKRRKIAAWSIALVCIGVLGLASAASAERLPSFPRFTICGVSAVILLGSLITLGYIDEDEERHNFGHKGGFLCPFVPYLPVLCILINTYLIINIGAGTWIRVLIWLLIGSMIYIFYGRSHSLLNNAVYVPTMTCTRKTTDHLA

Molecule: N=C(N)NCCC[C@H](N)C(=O)O [L-Arginine]
IC50 [1]: 48.6 ± 2.3 µM
IC50 (human SLC7A4 [2]): 680 ± 19 µM

Molecule: CC(C)C[C@H](N)C(=O)O [L-Leucine]
IC50 [3]: 65 µM
IC50 (human SLC7A4 [4]): 24 ± 5 µM

Kd [5]: 0.0573 ± 0.0105 µM
B1: Sybody B5 (VHH)
VHH: QVQLVESGGGLVQAGGSLRLSCAASGFPVNMYWMHWYRQAPGKEREWVAAIQSYGQWTAYADSVKGRFTISRDNAKNTVYLQMNSLKPEDTAVYYCAVGVGGYYLGQGTQVTVS
notes: Synthetic nanobody selected from the loop sybody library against AtCAT4; also called SybB5; source: E. coli MC1061, periplasmic extraction, purified (Ni-NTA); not shown: Myc, C-terminal, kept; His6, C-terminal, kept
